Earlier results on two molecules are cited in patent US20120244588A1, “METHOD OF PRODUCING 3-HYDROXYPROPIONIC ACID USING MALONIC SEMIALDEHYDE REDUCING PATHWAY” (SAMSUNG ELECTRONICS CO., LTD., priority 2011, published 2012).

Usually pKa stands for the negative logarithm of the acid dissociation constant.

For data set [1] the following is noted: 25° C.

`O=C(O)CCO` [3-HP, 3-hydroxypropionic acid]: the solubility in water entry is reported as “very soluble”. The pKa in data set [1] is listed as 4.51.

`O=C([O-])CCO.O=C([O-])CCO.[Ca+2]` [calcium salt of 3-HP]: the “solubility in water relative to citric acid or malic acid” value is 100 times.
